{"source": "patent US6355799B1", "about": "“Substituted benzene compounds, process for their preparation, and herbicidal and defoliant compositions containing them” (ISK Americas Incorporated, priority 1997, dated 2002)", "type_in_all_cases": "in vivo", "key": {"[1]": {"test_system": "green foxtail (Setaria viridis, SETVI)", "assay": "Post-emerge test, greenhouse herbicide activity screening", "settings": "post-emerge, 14 days after application, rating scale 0-100", "method_in_brief": "(§1)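 Rating: 0–100 visual injury, 14 DAA. Application: acetone, 187 l/ha, 15–1000 g ai/ha, flat-fan track sprayer with nozzle 40–45 cm above soil or canopy. Post-emerge runs used 0.25% v/v surfactant on 2–3 leaf plants.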"}, "[2]": {"test_system": "velvetleaf (Abutilon theophrasti, ABUTH)", "assay": "Post-emerge test, greenhouse herbicide activity screening", "settings": "post-emerge, 14 days after application, rating scale 0-100", "method_in_brief": "as §1"}, "[3]": {"test_system": "lambsquarters (Chenopodium album, CHEAL)", "assay": "Post-emerge test, greenhouse herbicide activity screening", "settings": "post-emerge, 14 days after application, rating scale 0-100", "method_in_brief": "as §1"}, "[4]": {"test_system": "large crabgrass (Digitaria sanguinalis, DIGSA)", "assay": "Post-emerge test, greenhouse herbicide activity screening", "settings": "post-emerge, 14 days after application, rating scale 0-100", "method_in_brief": "as §1"}, "[5]": {"test_system": "sicklepod (Cassia obtusifolia, CASOB)", "assay": "Post-emerge test, greenhouse herbicide activity screening", "settings": "post-emerge, 14 days after application, rating scale 0-100", "method_in_brief": "as §1"}, "[6]": {"test_system": "barnyardgrass (Echinochloa crus-galli, ECHCG)", "assay": "Post-emerge test, greenhouse herbicide activity screening", "settings": "post-emerge, 14 days after application, rating scale 0-100", "method_in_brief": "as §1"}, "[7]": {"test_system": "redroot pigweed (Amaranthus retroflexus, AMARE)", "assay": "Post-emerge test, greenhouse herbicide activity screening", "settings": "post-emerge, 14 days after application, rating scale 0-100", "method_in_brief": "as §1"}, "[8]": {"test_system": "johnsongrass (Sorghum halepense, SORHA)", "assay": "Post-emerge test, greenhouse herbicide activity screening", "settings": "post-emerge, 14 days after application, rating scale 0-100", "method_in_brief": "as §1"}, "[9]": {"test_system": "ivyleaf morningglory (Ipomoea hederacea, IPOHE)", "assay": "Post-emerge test, greenhouse herbicide activity screening", "settings": "post-emerge, 14 days after application, rating scale 0-100", "method_in_brief": "as §1"}, "[10]": {"test_system": "upland rice (Oryza sp., var. Tebonnet, RICE)", "assay": "Pre-emerge test, crop safety", "settings": "rated 14 days after application, 0 = no damage, 100 = complete death", "method_in_brief": "as §1"}, "[11]": {"test_system": "field corn (Zea mays L., var. Dekalb 535, CORN)", "assay": "Pre-emerge test, crop safety", "settings": "rated 14 days after application, 0 = no damage, 100 = complete death", "method_in_brief": "as §1"}, "[12]": {"test_system": "green foxtail (Setaria viridis, SETVI)", "assay": "Pre-emerge test, greenhouse herbicide activity screening", "settings": "rated 14 days after application, 0 = no damage, 100 = complete death", "method_in_brief": "(§2)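 Compounds in acetone were track-sprayed at 15-1000 g ai/ha (187 l/ha) on sandy loam pots: pre-emerge one day after seeding, post-emerge at 2-3 leaf stage with 0.25% v/v non-ionic surfactant. Phytotoxicity was rated 14 days later on a 0 (no damage) to 100 (complete death) scale.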"}, "[13]": {"test_system": "velvetleaf (Abutilon theophrasti, ABUTH)", "assay": "Pre-emerge test, greenhouse herbicide activity screening", "settings": "rated 14 days after application, 0 = no damage, 100 = complete death", "method_in_brief": "as §2"}, "[14]": {"test_system": "lambsquarters (Chenopodium album, CHEAL)", "assay": "Pre-emerge test, greenhouse herbicide activity screening", "settings": "rated 14 days after application, 0 = no damage, 100 = complete death", "method_in_brief": "as §2"}, "[15]": {"test_system": "large crabgrass (Digitaria sanguinalis, DIGSA)", "assay": "Pre-emerge test, greenhouse herbicide activity screening", "settings": "rated 14 days after application, 0 = no damage, 100 = complete death", "method_in_brief": "as §2"}, "[16]": {"test_system": "sicklepod (Cassia obtusifolia, CASOB)", "assay": "Pre-emerge test, greenhouse herbicide activity screening", "settings": "rated 14 days after application, 0 = no damage, 100 = complete death", "method_in_brief": "as §2"}, "[17]": {"test_system": "barnyardgrass (Echinochloa crus-galli, ECHCG)", "assay": "Pre-emerge test, greenhouse herbicide activity screening", "settings": "rated 14 days after application, 0 = no damage, 100 = complete death", "method_in_brief": "as §2"}, "[18]": {"test_system": "johnsongrass (Sorghum halepense, SORHA)", "assay": "Pre-emerge test, greenhouse herbicide activity screening", "settings": "rated 14 days after application, 0 = no damage, 100 = complete death", "method_in_brief": "as §2"}, "[19]": {"test_system": "ivyleaf morningglory (Ipomoea hederacea, IPOHE)", "assay": "Pre-emerge test, greenhouse herbicide activity screening", "settings": "rated 14 days after application, 0 = no damage, 100 = complete death", "method_in_brief": "as §2"}, "[20]": {"test_system": "redroot pigweed (Amaranthus retroflexus, AMARE)", "assay": "Pre-emerge test, greenhouse herbicide activity screening", "settings": "rated 14 days after application, 0 = no damage, 100 = complete death", "method_in_brief": "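Plants grown in 10 cm pots of sandy loam mix received acetone-dissolved compounds through a moving flat-fan nozzle. Doses ranged from 15 to 1000 g ai/ha. Pre-emerge pots were seeded one day earlier, post-emerge pots 8–21 days earlier. Fourteen days on, each pot was graded 0–100 for damage.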"}, "[21]": {"test_system": "upland rice (Oryza sp., var. Tebonnet, RICE)", "assay": "Post-emerge test, crop safety", "settings": "post-emerge, 14 days after application, rating scale 0-100", "method_in_brief": "as §2"}, "[22]": {"test_system": "field corn (Zea mays L., var. Dekalb 535, CORN)", "assay": "Post-emerge test, crop safety", "settings": "post-emerge, 14 days after application, rating scale 0-100", "method_in_brief": "as §2"}}, "data": [{"smiles": "COc1c(Cl)cc(F)c(-n2c(=O)cc(C(F)(F)F)n(C)c2=O)c1NC(=O)C=Cc1ccccc1Cl", "note": "[2-82]", "values": [{"measurement": "phytotoxicity rating SETVI", "setting": "[1]; 63 g ai/ha", "value": 40}, {"measurement": "phytotoxicity rating SETVI", "setting": "[1]; 250 g ai/ha", "value": 50}, {"measurement": "phytotoxicity rating ABUTH", "setting": "[2]; 63 g ai/ha", "value": 100}, {"measurement": "phytotoxicity rating ABUTH", "setting": "[2]; 250 g ai/ha", "value": 100}, {"measurement": "phytotoxicity rating CHEAL", "setting": "[3]; 63 g ai/ha", "value": 90}, {"measurement": "phytotoxicity rating CHEAL", "setting": "[3]; 250 g ai/ha", "value": 90}, {"measurement": "phytotoxicity rating DIGSA", "setting": "[4]; 63 g ai/ha", "value": 0}, {"measurement": "phytotoxicity rating DIGSA", "setting": "[4]; 250 g ai/ha", "value": 30}, {"measurement": "phytotoxicity rating CASOB", "setting": "[5]; 63 g ai/ha", "value": 100}, {"measurement": "phytotoxicity rating CASOB", "setting": "[5]; 250 g ai/ha", "value": 100}, {"measurement": "phytotoxicity rating ECHCG", "setting": "[6]; 63 g ai/ha", "value": 20}, {"measurement": "phytotoxicity rating ECHCG", "setting": "[6]; 250 g ai/ha", "value": 30}, {"measurement": "phytotoxicity rating AMARE", "setting": "[7]; 63 g ai/ha", "value": 100}, {"measurement": "phytotoxicity rating AMARE", "setting": "[7]; 250 g ai/ha", "value": 100}, {"measurement": "phytotoxicity rating SORHA", "setting": "[8]; 63 g ai/ha", "value": 0}, {"measurement": "phytotoxicity rating SORHA", "setting": "[8]; 250 g ai/ha", "value": 30}, {"measurement": "phytotoxicity rating IPOHE", "setting": "[9]; 63 g ai/ha", "value": 60}, {"measurement": "phytotoxicity rating IPOHE", "setting": "[9]; 250 g ai/ha", "value": 90}, {"measurement": "Pre-emerge phytotoxicity rating (0-100), crop damage, RICE", "setting": "[10]; 63 g ai/ha", "value": 10}, {"measurement": "Pre-emerge phytotoxicity rating (0-100), crop damage, RICE", "setting": "[10]; 250 g ai/ha", "value": 10}, {"measurement": "Pre-emerge phytotoxicity rating (0-100), crop damage, CORN", "setting": "[11]; 63 g ai/ha", "value": 0}, {"measurement": "Pre-emerge phytotoxicity rating (0-100), crop damage, CORN", "setting": "[11]; 250 g ai/ha", "value": 0}, {"measurement": "Pre-emerge Herbicidal Activity, phytotoxicity rating (0-100), SETVI", "setting": "[12]; 63 g ai/ha", "value": 80}, {"measurement": "Pre-emerge Herbicidal Activity, phytotoxicity rating (0-100), SETVI", "setting": "[12]; 250 g ai/ha", "value": 100}, {"measurement": "Pre-emerge Herbicidal Activity, phytotoxicity rating (0-100), ABUTH", "setting": "[13]; 63 g ai/ha", "value": 100}, {"measurement": "Pre-emerge Herbicidal Activity, phytotoxicity rating (0-100), ABUTH", "setting": "[13]; 250 g ai/ha", "value": 100}, {"measurement": "Pre-emerge Herbicidal Activity, phytotoxicity rating (0-100), CHEAL", "setting": "[14]; 63 g ai/ha", "value": 100}, {"measurement": "Pre-emerge Herbicidal Activity, phytotoxicity rating (0-100), CHEAL", "setting": "[14]; 250 g ai/ha", "value": 100}, {"measurement": "Pre-emerge Herbicidal Activity, phytotoxicity rating (0-100), DIGSA", "setting": "[15]; 63 g ai/ha", "value": 30}, {"measurement": "Pre-emerge Herbicidal Activity, phytotoxicity rating (0-100), DIGSA", "setting": "[15]; 250 g ai/ha", "value": 80}, {"measurement": "Pre-emerge Herbicidal Activity, phytotoxicity rating (0-100), CASOB", "setting": "[16]; 63 g ai/ha", "value": 80}, {"measurement": "Pre-emerge Herbicidal Activity, phytotoxicity rating (0-100), CASOB", "setting": "[16]; 250 g ai/ha", "value": 100}, {"measurement": "Pre-emerge Herbicidal Activity, phytotoxicity rating (0-100), ECHCG", "setting": "[17]; 63 g ai/ha", "value": 0}, {"measurement": "Pre-emerge Herbicidal Activity, phytotoxicity rating (0-100), ECHCG", "setting": "[17]; 250 g ai/ha", "value": 0}, {"measurement": "Pre-emerge Herbicidal Activity, phytotoxicity rating (0-100), SORHA", "setting": "[18]; 63 g ai/ha", "value": 0}, {"measurement": "Pre-emerge Herbicidal Activity, phytotoxicity rating (0-100), SORHA", "setting": "[18]; 250 g ai/ha", "value": 20}, {"measurement": "Pre-emerge Herbicidal Activity, phytotoxicity rating (0-100), IPOHE", "setting": "[19]; 63 g ai/ha", "value": 0}, {"measurement": "Pre-emerge Herbicidal Activity, phytotoxicity rating (0-100), IPOHE", "setting": "[19]; 250 g ai/ha", "value": 0}, {"measurement": "Pre-emerge Herbicidal Activity, phytotoxicity rating (0-100), AMARE", "setting": "[20]; 63 g ai/ha", "value": 100}, {"measurement": "Pre-emerge Herbicidal Activity, phytotoxicity rating (0-100), AMARE", "setting": "[20]; 250 g ai/ha", "value": 100}, {"measurement": "phytotoxicity rating RICE", "setting": "[21]; 63 g ai/ha", "value": 50}, {"measurement": "phytotoxicity rating RICE", "setting": "[21]; 250 g ai/ha", "value": 40}, {"measurement": "phytotoxicity rating CORN", "setting": "[22]; 63 g ai/ha", "value": 10}, {"measurement": "phytotoxicity rating CORN", "setting": "[22]; 250 g ai/ha", "value": 25}]}]}
